Patent US5843758A, “Enzyme based bioremediation” (priority 1994, dated 1998)
Changes are numbered by the printed parent chain.

Experiments:
[1] = biological target: T1, Lucilia cuprina LcαE7 (E3) esterase, OP susceptible allele, clone Lc743 (printed Lc473), SEQ ID NO:3 (Lucilia cuprina, UniProt Q25252); assay: Malathion hydrolysis / time-dependent inhibition of the enzyme by malathion; assay type: biochemical; conditions: in the presence of 4 μM malathion; supernatant of cells expressing the OP susceptible allele
T1 sequence (Q25252 1-570): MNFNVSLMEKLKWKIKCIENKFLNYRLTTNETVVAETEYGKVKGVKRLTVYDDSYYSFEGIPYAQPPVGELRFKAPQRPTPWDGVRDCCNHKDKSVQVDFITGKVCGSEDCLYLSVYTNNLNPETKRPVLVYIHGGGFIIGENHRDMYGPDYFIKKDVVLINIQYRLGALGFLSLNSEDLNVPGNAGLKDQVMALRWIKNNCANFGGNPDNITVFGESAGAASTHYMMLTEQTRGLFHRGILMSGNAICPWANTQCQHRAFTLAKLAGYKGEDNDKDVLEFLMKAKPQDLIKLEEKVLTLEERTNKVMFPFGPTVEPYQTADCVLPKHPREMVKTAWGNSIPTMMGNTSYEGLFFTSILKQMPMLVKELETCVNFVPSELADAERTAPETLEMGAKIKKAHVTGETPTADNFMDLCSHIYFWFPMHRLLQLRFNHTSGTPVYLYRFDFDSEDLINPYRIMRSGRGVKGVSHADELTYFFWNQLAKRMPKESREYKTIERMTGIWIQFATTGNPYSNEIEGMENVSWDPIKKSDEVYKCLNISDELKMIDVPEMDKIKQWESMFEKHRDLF
Protocol: The susceptible (clone Lc743) and resistant (clone Lc7L103D) alleles of LcαE7 were cloned into the baculovirus transfer vector, Bacpac 8 (Clonetech), 3' of the polyhedrin promoter. Transfections were conducted using a lipofection method with polybrene (Sigma) according to King, L. A. & Possee, R. D. (The Baculovirus Expression System: A Laboratory Guide, Chapman & Hall, London, 1992). One μg of DNA of each of the resulting constructs together with 200 ng of Bacpac 6 baculovirus DNA (Clonetech), linearised by digestion with the restriction enzyme BSU 36I (Progema), was incubated in a solution of hepes buffered saline containing 0.5% polybrene (Sigma) at room temperature for 10 minutes. The solution was then used to transfect a single well of a six well tissue culture plate pre-seeded 2 hr previously with 10^4 Sf9 (Spodoptera frugiperda) cells in 1.5 ml Grace's medium (King, L. A. & Possee, R. D, The Baculovirus Expression System: A Laboratory Guide, Chapman & Hall, London, 1992). […]
Initial rates of malathion hydrolysis by the supernatant of cells expressing the OP susceptible allele, […], was 3.3 pmole/min/μl from an initial concentration of 4 μM malathion. […] Malathion hydrolysis (0.5 pmoles/min/μl) was also detected in the supernatant of cells expressing the D. melanogaster homologue, DmaE7.

[2] = tested on: CFVP hydrolysing enzyme (E3 esterase) in homogenate of OP-resistant L. cuprina strain RM2-6 [der-S]; assay: Radiometric partition assay for OP hydrolysis, whole-fly homogenate; assay type: biochemical, Lucilia cuprina; conditions: preliminary kinetic experiments
Protocol: Enzyme samples were diluted in 0.1M imidazole-HCl buffer pH 7.0 ("imidazole buffer") to a final volume of 25 μl. Reactions were started by the addition of 25 μl of [^14 C-ethyl]-chlorfenvinphos (CFVP, 306.5 MBq/mmole, Internationale Isotope Munchen) diluted in imidazole buffer from a 7.5 mM stock solution in ethanol. The final chlorfenvinphos concentration was typically 50 or 75 μM for routine assays but can be much lower for the determination of kinetic parameters. The reaction was incubated at 30° C. and stopped by the addition of 300 μl dichloromethane and 150 µl of imidazole buffer containing 10 μM diethylphosphate (Eastman Kodak) followed by vigourous vortex mixing. The reactions were centrifuged to separate phases and 150 μl of the upper, aqueous phase was taken for scintillation counting to determine the amount of ^14 C-diethylphosphate produced by hydrolysis of CFVP. Incubations with boiled enzyme were also performed to control for non-enzymic hydrolysis of CFVP.
(i) Whole-fly homogenates: Assays were carried out on whole-fly homogenates using 50 μM CFVP. […] The boiled control hydrolysed CFVP at a rate of 0.48 pmol/min/mg protein. Homogenates derived from an OP-susceptible strain (LS2) hydrolysed CFVP at the same rate as the boiled control, indicating the absence of CFVP hydrolytic enzymic activity in OP-susceptible L. cuprina.

[3] = biological target: T2, Lucilia cuprina LcαE7 (E3) esterase, OP resistant allele, clone Lc7L103D (Gly to Asp at amino acid position 137) (Lucilia cuprina, UniProt Q25252, form not given/G137D); assay: Radiometric partition assay for OP hydrolysis, enzyme expressed in vitro (baculovirus/Sf9); assay type: biochemical
T2 sequence (Q25252 1-570 G137D): T1 sequence (Q25252 1-570) with G137D
Protocol: The susceptible (clone Lc743) and resistant (clone Lc7L103D) alleles of LcαE7 were cloned into the baculovirus transfer vector, Bacpac 8 (Clonetech), 3' of the polyhedrin promoter. Transfections were conducted using a lipofection method with polybrene (Sigma) according to King, L. A. & Possee, R. D. (The Baculovirus Expression System: A Laboratory Guide, Chapman & Hall, London, 1992). One μg of DNA of each of the resulting constructs together with 200 ng of Bacpac 6 baculovirus DNA (Clonetech), linearised by digestion with the restriction enzyme BSU 36I (Progema), was incubated in a solution of hepes buffered saline containing 0.5% polybrene (Sigma) at room temperature for 10 minutes. The solution was then used to transfect a single well of a six well tissue culture plate pre-seeded 2 hr previously with 10^4 Sf9 (Spodoptera frugiperda) cells in 1.5 ml Grace's medium (King, L. A. & Possee, R. D, The Baculovirus Expression System: A Laboratory Guide, Chapman & Hall, London, 1992). After 12 hr, the medium was removed, made up to 10% DMSO and placed back over the cells for 5 minutes. This was then replaced with 3 ml of Grace's medium containing 10% fetal calf serum. Construct plus polybrene, linearised virus plus polybrene and polybrene only controls were conducted in parallel with transfections. […]

SMILES | half-life of enzyme inhibition by malathion [1] | Km ([2]; RM2-6 homogenate, CFVP hydrolysis, pH 7.0, 30° C.) | Vmax for the hydrolysis of CFVP ([2]; homogenates of the resistant strain) | Km ([3]; cells expressing the Lc7L103D allele, CFVP hydrolysis, imidazole-HCl pH 7.0, 30° C., preliminary kinetic experiments, read-out: Km of the CFVP hydrolysing enzyme) | Vmax of CFVP hydrolysis ([3]; cells expressing the OP resistant allele Lc7L103D, pH 7.0, 30° C.)
CCOC(=O)CC(SP(=S)(OC)OC)C(=O)OCC (centres unmarked) [malathion] | about 20 minutes | – | – | – | –
CCOP(=O)(OCC)OC(=CCl)c1ccc(Cl)cc1Cl [CFVP, chlorfenvinphos] | – | ~16 µM | approximately 13 pmol/min/mg protein | ~16 µM | approximately 2.0 nmol/min/mg protein
